# Marks after values point to notes of the source that are not given here.
# Legend:
# [1] = system: IL-1β-stimulated PGE2 secretion in articular chondrocytes; experiment: IL-1β-stimulated PGE2 secretion in articular chondrocytes (EIA); format: cell-based, rabbit; conditions: for C8 inhibitory effect (%inhibition) on PGE2 secretion: DMEM with 2% FCS, 20 h; for decrease of PGE2 production induced by IL-1β: IL-1β 20 h
# Protocol: We tested the effect of C8 on the IL-1β-stimulated secretion of PGE2 in chondrocytes. PGE2 synthesis takes place mainly in response to cell activation by IL-1β, and its generation accounts for many of the actions induced by this cytokine. In vitro, IL-1β induces the expression of COX-2 by chondrocytes, which results in increased PGE2 production. PGE2 release thus represents a powerful IL-1β- and PLA2-dependent inflammatory marker in our cell model. Chondrocytes were treated for 20 h with IL-1β alone or 1 h after the addition of C8. […] In DMEM alone, at concentrations of 0.31-, 0.62-, 0.94-, and 1.24-µM, C8 decreased the production of PGE2 induced by IL-1β by 59-, 58-, 74-, and 80-%, respectively (Fig. 4A). In DMEM supplemented with 0.1% BSA, at concentrations of 0.31-, 0.62-, 0.94-, 1.24-, 2.48-, and 4.96-µM, C8 decreased the production of PGE2 induced by IL-1β by 31-, 30-, 45-, 43-, 81-, and 92-%, respectively (Fig. 4B). In DMEM supplemented with 2% FCS, at concentrations of 0.31-, 0.62-, 0.94-, 1.24-, 2.48-, and 4.96-µM, C8 decreased the production of PGE2 induced by IL-1β by 26-, 48-, 49-, 54-, 68-, and 68-%, respectively (Fig. 4C). […] The effect of C8 was then evaluated at the extreme concentrations (0.31- and 4.96-µM) in DMEM supplemented with 2% FCS and containing decreasing (1-, 0.5-, and 0.25-ng/mL) IL-1β concentrations (Table 3). The anti-IL-1β inhibitory effect of C8 at 0.31 µM increases when IL-1β concentration decreases. […] This is probably due to the fact that at 4.96 µM, the inhibitory effect of C8 on IL-1β-induced PGE2 production is maximal. […] Thus, C8, but not C1, decreases the IL-1β-stimulated PGE2 secretion in a dose-dependent manner in the three culture medium compositions used.
# Articular chondrocytes were isolated from 5-week-old Fauve de Bourgogne female rabbits (CPA, Orleans, France) and cultured at the first passage in conditions avoiding cell dedifferentiation as previously described. Cells were cultured at 37°C in 12-well plates in Ham's F-12 medium containing 10% FCS, 20 IU/mL penicillin, and 20 µg/mL streptomycin (all from Invitrogen) until nearly confluent. Then medium was replaced with DMEM (Invitrogen) containing 20 IU/mL penicillin, and 20 µg/mL streptomycin and, if necessary, 0.1% fatty acid free BSA (Sigma) or 2% FCS. At this time the C8 compound dissolved in DMSO (Sigma) was added to the medium (the amount of DMSO was kept at 1‰ (v/v) in all the wells). 1 h after the addition of C8, IL-1β (PeproTech) was added to the medium. Consequently, chondrocytes were incubated for 20 h with IL-1β and for 21 h with C8.
# 20 h after the addition of IL-1β to the chondrocytes, culture media were collected, and aliquots were stored at −80°C until PGE2 and nitrite quantification. PGE2 concentration in culture media was determined by use of an enzyme immunoassay (EIA) kit (PGE2 EIA Kit-monoclonal; Cayman Chemical). Nitrite concentration was determined by a spectrophotometry method based on the Griess reaction. Briefly, 200 µL of culture medium or sodium nitrite (NaNO2, Merck) standard dilutions were mixed with 100 µL Griess reagent [0.5% (w/v) sulphanilic acid (Merck), 0.05% (w/v) N(1-naphtyl)ethylenediamine (Merck), 30% (v/v) acetic acid, 1.5 N HCl] and incubated for 10 min at 50°C. The absorbance was measured at 540 nm.
# [2] = target: T1, porcine group IB PLA2 (pGIBPLA2) (Sus scrofa, UniProt P00592); experiment: In vitro fluorimetric PLA2 assay (β-py-C10-PG substrate); format: biochemical; conditions: 2 µM β-py-C10-PG, 6 ng/mL pancreatic PLA2
# T1 construct: purchased Sigma
# T1 sequence (P00592 23-146): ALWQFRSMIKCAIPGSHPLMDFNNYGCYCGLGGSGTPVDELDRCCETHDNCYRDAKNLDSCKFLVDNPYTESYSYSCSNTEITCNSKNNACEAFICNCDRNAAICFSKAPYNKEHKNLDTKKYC
# Protocol: The compounds C1-C8 were submitted to fluorimetric assay to determine their inhibitory potencies and selectivity towards human GIIAPLA2 (hGIIAPLA2) versus porcine group IB PLA2 (pGIBPLA2) (Table 2). GIBPLA2 is an enzyme of the same family as GIIAPLA2 (sPLA2) but is mainly involved in digestion of dietary phospholipids and is secreted by the pancreas. Lipophilicity parameters, log P, of these products are calculated by use of Rekker's fragmental data (Table 2). The molecules C1-C8 are specific inhibitors of hGIIAPLA2 because none inhibited pGIBPLA2 at the highest concentration tested (100 µM). Such selectivity implies that C1-C8 should not interfere with the digestion process.
# Fatty-acid free BSA and pancreatic PLA2 were from Sigma. hGIIAPLA2 was prepared as previously described. The fluorescent substrate for PLA2 assay, 1-hexadecanoyl-2-(10-pyrenedecanoyl)-sn-glycero-3-phosphoglycerol, ammonium salt (β-py-C10-PG) was from Molecular Probes (Eugene). PLA2 activity was evaluated as previously described with β-py-C10-PG used as a substrate (2 µM final concentration). In a total volume of 1 mL, the standard reaction medium contained 50 mM Tris-HCl (pH 7.5), 500 mM NaCl, 1 mM EGTA, 2 µM β-py-C10-PG, 0.1% fatty-acid free BSA and 6 ng/mL pancreatic PLA2 or 1 ng/mL hGIIAPLA2. The fluorescence (λex = 342 nm and λem = 398 nm) of the enzymatic reaction medium was recorded for 3 min with use of a spectrofluorimeter LS 50 (Perkin-Elmer) equipped with a Xenon lamp. The reaction was initiated by the addition of CaCl2 (10 mM, final concentration). The increase in fluorescence was continuously recorded for 1 min, and PLA2 activity was calculated as previously described. When used, the inhibitor was added to the reaction medium after introduction of BSA. The activity is expressed in micromoles of fluorescent β-py-C10-PG hydrolyzed per min. The standard error of the mean of three independent experiments was less than 10%, which allows for the determination of the IC50 values (concentration of inhibitors producing 50% inhibition) of each compound.
structure (smiles),measurement,setting,value
O=c1[nH]c(Cc2ccc(OCCCCCOc3cc4ccccc4c4ccccc34)cc2)no1 [C8],C8 inhibitory effect (%inhibition) on PGE2 secretion,"[1]; C8 at 0.31 µM, IL-1β 0.25 ng/mL",67 %inhibition
same,C8 inhibitory effect (%inhibition) on PGE2 secretion,"[1]; C8 at 0.31 µM, IL-1β 0.5 ng/mL",60 ^* %inhibition
same,C8 inhibitory effect (%inhibition) on PGE2 secretion,"[1]; C8 at 4.96 µM, IL-1β 0.25 ng/mL",65 %inhibition
same,C8 inhibitory effect (%inhibition) on PGE2 secretion,"[1]; C8 at 4.96 µM, IL-1β 0.5 ng/mL",67 ^* %inhibition
same,C8 inhibitory effect (%inhibition) on PGE2 secretion,"[1]; C8 at 4.96 µM, IL-1β 1 ng/mL",68 ^*** %inhibition
same,decrease of PGE2 production induced by IL-1β,"[1]; DMEM + 0.1% BSA, C8 0.31 µM",31%
same,decrease of PGE2 production induced by IL-1β,"[1]; DMEM + 0.1% BSA, C8 0.62 µM",30%
same,decrease of PGE2 production induced by IL-1β,"[1]; DMEM + 0.1% BSA, C8 0.94 µM",45%
same,decrease of PGE2 production induced by IL-1β,"[1]; DMEM + 0.1% BSA, C8 1.24 µM",43%
same,decrease of PGE2 production induced by IL-1β,"[1]; DMEM + 0.1% BSA, C8 2.48 µM",81%
same,down-regulation of IL-1β-stimulated secretion of PGE2,"[1]; DMEM + 0.1% BSA, C8 4.96 µM",to the level of the control untreated condition
same,decrease of PGE2 production induced by IL-1β,"[1]; DMEM + 0.1% BSA, C8 4.96 µM",92%
same,decrease of PGE2 production induced by IL-1β,"[1]; DMEM + 2% FCS, C8 0.31 µM",26%
same,decrease of PGE2 production induced by IL-1β,"[1]; DMEM + 2% FCS, C8 0.62 µM",48%
same,decrease of PGE2 production induced by IL-1β,"[1]; DMEM + 2% FCS, C8 0.94 µM",49%
same,decrease of PGE2 production induced by IL-1β,"[1]; DMEM + 2% FCS, C8 1.24 µM",54%
same,decrease of PGE2 production induced by IL-1β,"[1]; DMEM + 2% FCS, C8 2.48 µM",68%
same,decrease of PGE2 production induced by IL-1β,"[1]; DMEM + 2% FCS, C8 4.96 µM",68%
same,down-regulation of IL-1β-stimulated secretion of PGE2,"[1]; DMEM + 2% FCS, C8 2.48 and 4.96 µM",to the level of the control untreated condition
same,decrease of PGE2 production induced by IL-1β,"[1]; DMEM alone, C8 0.31 µM",59%
same,decrease of PGE2 production induced by IL-1β,"[1]; DMEM alone, C8 0.62 µM",58%
same,decrease of PGE2 production induced by IL-1β,"[1]; DMEM alone, C8 0.94 µM",74%
same,decrease of PGE2 production induced by IL-1β,"[1]; DMEM alone, C8 1.24 µM",80%
same,IC50,[2],> 100 µM

# Reference: article PMC2879362, “Design of Group IIA Secreted/Synovial Phospholipase A2 Inhibitors: An Oxadiazolone Derivative Suppresses Chondrocyte Prostaglandin E2 Secretion” (PLoS ONE, 2010)
